The subject of data set [1] is virus de la maladie de Talfan. Briefly: Virucidal activity of mixtures, drop of viral titre, Example 1. The conditions noted are these: 30 min, 20°C, eau dure à 30°f + matières organiques. The format is cell-based. Here is the method:
Pour déterminer l'activité virucide de l'association susmentionnée, on a préparé différents mélanges monoperoxyphtalate de magnésium/cumène sulfonate de sodium/acide malique et on a analysé l'efficacité de ces différents mélanges sur le virus de la maladie de Talfan, ce en appliquant les conditions expérimentales qui correspondent aux exigences en matière d'homologation d'un désinfectant à usage agricole [temps de contact 30 min. - température 20°C - conditions de saleté : eau dure à 30°f + matières organiques (albumine 1 % + extrait de levure 1 %)].

The test system of data set [2] is Enterococcus hirae (CIP 58 55). Particulars: temps de contact 5 min, 20°C. Here is the method: (§1) Conformément à l'invention, on a vérifié l'activité bactéricide du monoperoxyphtalate de magnésium vis-à-vis de souches bactériennes fréquentes dans les élevages, à savoir les souches suivantes : Pseudomonas aeruginosa, Escherichia coli, Staphylococcus aureus et Enteroccocus hirae, ce en appliquant les conditions expérimentales qui répondent aux exigences d'homologation d'un désinfectant à usage agricole qui sont définies par la norme NF-T 72-301 (temps de contact 5 min. température 20°C, conditions de saleté : eau dure à 30°f, matière organique = albumine 1 % + extraits de levures 1 %).
(§2) Il est à noter que conformément aux exigences en matière d'homologation (norme NF-T 72-171) une substance est considérée comme active à une concentration d'emploi donnée lorsqu'elle permet de réduire le titre bactérien d'au moins 10^5, soit 5 Log.

In data set [3] the test system is Escherichia coli (CIP 53 154). The conditions noted are these: temps de contact 5 min, 20°C, conditions de saleté. The protocol: as §1, §2
Data set [4] concerns Pseudomonas aeruginosa (CIP A22). The conditions noted are these: temps de contact 5 min, 20°C, conditions de saleté. Here is the method:
as §1, §2

The test system of data set [5] is Staphylococcus aureus (CIP 53 154). Particulars: temps de contact 5 min, 20°C. Here is the method: as §1, §2
For data set [6], the system named is Pseudomonas aeruginosa, Escherichia coli, Staphylococcus aureus et Enteroccocus hirae. Briefly: Bactericidal activity on all four tested strains (summary). The format is cell-based. Particulars: conditions requises (NF-T 72-301). Here is the method: as §1, §2
Data set [7] concerns Enteroccocus hirae (CIP 58 55). Here is the method: (§3) On a analysé l'activité bactéricide des produits testés sur les deux souches bactériennes Pseudomonas aeruginosa (CIP A 22) et Enteroccocus hirae (CIP 58 55).
(§4) On a ainsi déterminé les concentrations minimales bactéricides (CMB), d'une part, de monoperoxyphtalate de magnésium (MMPP) et de mélange Ml seul et, d'autre part, de leur association, ce dans des solutions d'eau distillée, d'eau dure à 30°f et dans les conditions de saleté prévues par les normes correspondant aux exigences en matière d'homologation d'un désinfectant à usage agricole (matières organiques : albumine 1 % + extrait de levures 1 %).

Data set [8] concerns Pseudomonas aeruginosa (CIP A 22). Here is the method: as §3, §4
Data set [9] concerns virus de la maladie de Talfan.
Excerpt: Selon les normes en vigueur, une substance est considérée comme virucide lorsqu'elle permet de réduire le titre viral d'au moins 10^3, c'est-à-dire de 3 Log.
Ce test a été effectué sur le virus de la maladie de Talfan (enterovirus non enveloppé, à ARN).
The conditions of data set [10]: 20°C; cited from earlier work.
Data set [11] has as its system rat. The conditions noted are these: Toxicité aiguë par voie orale; cited from earlier work.
Another data set relates to lapin. Particulars: Toxicité aiguë par voie dermique; cited from earlier work.
Data set [12] relates to rat. The conditions noted are these: Toxicité aiguë par inhalation; cited from earlier work.
A further data set concerns rats de laboratoire. The conditions noted are these: Toxicité moyenne; cited from earlier work.
For data set [13] the following is noted: test de AMES; cited from earlier work.
In the next data set the test system is truite arc en ciel. The conditions noted are these: cited from earlier work.
The mark [14] stands for this setting: conditions de saleté (eau dure à 30°f, albumine 1 % + extraits de levures 1 %).

Results on 3 compounds are retold here after EP1095663B1, “Potentiated and stabilised disinfectant having bactericidal and virucidal activity” (Sogeval S.A., priority 1999, dated 2001).

Where two headings read alike, the source gives them in different places.

`O=C(O)CC(O)C(=O)O` (stereo not drawn) [Ac. Malique, acide malique]: the “Chute du titre viral (exprimé en Log)” value in [1] (Ac. Malique 3000 ppm) is given as 0,33 Log.

Consider `CC(C)c1ccc(S(=O)(=O)[O-])cc1.[Na+]` [Cumène sulfonate de sodium, cumène sulfonate de sodium], for which, in data set [1] (Cumène sulfonate de sodium 1500 ppm), the “Chute du titre viral (exprimé en Log)” value is reported as 0 Log.

On to `O=C(O)c1ccccc1C(=O)OO` [monoperoxyphtalate de magnésium], for which the “Equivalence Avox” value is listed as no less than 300 ppm in [2] (conditions de saleté), no less than 150 ppm in data set [3], no less than 300 ppm in data set [4] and no less than 450 ppm in data set [5] (conditions de saleté). Besides, the “Concentration active en monoperoxyphtalate de magnésium (réduction > 10^5 Log)” value in data set [2] (setting [14]) is ≥ 5 000 ppm; in [5] (setting [14]), ≥ 7 500 ppm. For the same compound, in data set [6], the “concentration efficace sur les souches testées” value is 7 500 ppm. Also, the “concentration efficace sur les souches testées, en oxygène libre” value in [6] (oxygène libre) is listed as 450 ppm. Besides, the “concentrations minimales bactéricides (CMB)” value in data set [7] (Eau distillée), in data set [7] (Eau dure 30°F), in data set [8] (Eau distillée) and in data set [8] (Eau dure 30°F) was 800 ppm in each case. Moreover, the “Chute du titre viral (exprimé en Log)” value in [1] (MMPP 1000 ppm) is recorded as 2,6 Log; in [1] (MMPP 1500 ppm), 3,7 Log. Moreover, the “concentration à partir de laquelle activité virucide” value in data set [9] is ≥ 1 500 ppm. Moreover, the “soluble en milieu aqueux” value in data set [10] is 80 g/L. The “LD50 (voie orale, rat)” value in the data set with rat [11] is reported as 2300 MG/kg de poids vif. For the same compound, in the data set on lapin, the “LD50 (voie dermique, lapin)” value is listed as 2000 mg/kg de poids vif. In the data set on rat [12], the “LD50 (voie nasale, rat)” value was 0,84 mg/l. In addition, in the data set on rats de laboratoire, the “Effets toxiques (alimentation de rats de laboratoire pendant 90 jours)” value is reported as greater than 620 mg/kg de poids vif. In addition, the “Propriétés Mutagenes” value in [13] is reported as “Non mutagène selon le test de AMES (norme n° ...)”. The “LC50 (7 jours, truite arc en ciel)” value in the data set with truite arc en ciel was 38,5 mg :l.
